Laboratory results from PubChem BioAssay (NCI).
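48-hour exposure; five concentrations; linearly interpolated endpoints. GI50 marks 50% less growth. The concentration for full growth arrest is given as TGI.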

Experiments:
Assay in all cases: DTP human tumour cell line panel, 48 h
SR leukemia = system: SR leukemia
EKVX NSCLC = system: EKVX NSCLC
OVCAR-3 ovarian = system: OVCAR-3 ovarian
NCI/ADR-RES ovarian = system: NCI/ADR-RES ovarian
SNB-19 CNS = system: SNB-19 CNS
786-0 renal = system: 786-0 renal
SK-MEL-5 melanoma = system: SK-MEL-5 melanoma
OVCAR-5 ovarian = system: OVCAR-5 ovarian
IGROV1 ovarian = system: IGROV1 ovarian
RPMI-8226 leukemia = system: RPMI-8226 leukemia

SMILES | TGI (SR leukemia) | TGI (EKVX NSCLC) | TGI (OVCAR-3 ovarian) | TGI (NCI/ADR-RES ovarian) | TGI (SNB-19 CNS) | TGI (786-0 renal) | TGI (SK-MEL-5 melanoma) | TGI (OVCAR-5 ovarian) | TGI (IGROV1 ovarian) | TGI (RPMI-8226 leukemia) | GI50 (SR leukemia) | GI50 (EKVX NSCLC) | GI50 (OVCAR-3 ovarian) | GI50 (NCI/ADR-RES ovarian) | GI50 (SNB-19 CNS) | GI50 (786-0 renal) | GI50 (SK-MEL-5 melanoma) | GI50 (OVCAR-5 ovarian) | GI50 (IGROV1 ovarian) | GI50 (RPMI-8226 leukemia)
Cc1ccccc1CN1CC2=C(CCN(Cc3ccccc3)C2=O)N2CCN=C12 | > 100 µM | > 100 µM | > 87 µM | > 100 µM | > 100 µM | > 100 µM | > 64.7 µM | > 100 µM | > 100 µM | > 100 µM | – | – | – | – | – | – | – | – | – | –
N#CC1=C(N)NC(=S)NC12Nc1ccccc1O2 (stereo not drawn) | > 100 µM | > 100 µM | > 100 µM | 69.6 µM | > 100 µM | > 100 µM | 85.4 µM | > 100 µM | 24.9 µM | 62.7 µM | 0.597 µM | 62.3 µM | 36.4 µM | 20.5 µM | 23.9 µM | 30.1 µM | 27.1 µM | 40.7 µM | 3.17 µM | 21.9 µM
OC(C1=C/C(=C\c2ccncc2)c2ccccc21)c1ccncc1 (stereo not drawn) | 29.1 µM | 41.5 µM | 31.7 µM | > 75 µM | 69.2 µM | 30.3 µM | 13 µM | 37.4 µM | 52.4 µM | 22.4 µM | – | – | – | – | – | – | – | – | – | –
S=c1nc(Oc2ccc(Cl)c(Cl)c2)[nH]c(=S)[nH]1 | > 100 µM | > 93.9 µM | > 100 µM | > 100 µM | > 100 µM | > 100 µM | > 55.6 µM | > 100 µM | > 92.3 µM | 51.5 µM | – | – | – | – | – | – | – | – | – | –
O=[N+]([O-])c1ccc(-c2nc(N(CCO)CCO)c3ccccc3n2)o1 | – | 4.31 µM | 1.43 µM | 7.57 µM | 1.41 µM | 0.621 µM | 0.244 µM | 5.1 µM | 0.45 µM | > 21.3 µM | 0.0881 µM | 0.464 µM | 0.235 µM | 0.956 µM | 0.229 µM | 0.231 µM | 0.112 µM | 0.562 µM | 0.151 µM | 0.567 µM
COc1c(C)c2c(c(O)c1C/C=C(\C)CCC(=O)OCCN1CCOCC1)C(=O)OC2 | 32.6 µM | > 100 µM | > 100 µM | > 100 µM | > 100 µM | > 100 µM | > 100 µM | > 100 µM | > 100 µM | > 100 µM | 0.24 µM | – | 0.348 µM | 0.471 µM | 0.325 µM | 0.385 µM | 0.383 µM | 2.09 µM | 0.27 µM | 0.891 µM
COc1ccc(C2=NN(C(=O)COc3ccc(Cl)cc3)C(O)(c3cc(F)c(Cl)cc3Cl)C2)cc1OC (stereo not drawn) | 6.89 µM | 22.8 µM | 1.46 µM | 8.73 µM | 25.8 µM | 8.9 µM | 20.9 µM | 13.3 µM | 22.2 µM | 5.78 µM | 1.97 µM | 10.5 µM | 0.214 µM | 2.94 µM | 11.7 µM | 3.31 µM | 8.29 µM | 5.91 µM | 10.2 µM | 1.79 µM
N=C1c2nc3n(c2C(=O)c2nc4n(c21)CCCC4)CCCC3 | > 79.3 µM | > 100 µM | > 100 µM | > 100 µM | 12.5 µM | > 89.3 µM | 0.864 µM | 4.89 µM | > 100 µM | > 100 µM | 13.4 µM | 44.7 µM | 27.1 µM | 35.6 µM | 2.89 µM | 32.2 µM | 0.431 µM | 2.28 µM | 41.6 µM | 27.5 µM
CCN(CC)CCOc1ccc(Nc2ncc3cc(-c4ccc(O)cc4)c(=O)n(C)c3n2)cc1 | 2.76 µM | 37.5 µM | 31.2 µM | 41.5 µM | 27.5 µM | 2.65 µM | 31 µM | 30.8 µM | 15.9 µM | 44.5 µM | 0.0662 µM | 15.1 µM | 15.9 µM | 12.7 µM | 8.57 µM | 0.391 µM | 14.8 µM | 10.7 µM | 0.0803 µM | 14.5 µM
CC1(C)OC[C@@H]([C@@]2(CO[Si](C)(C)C(C)(C)C)CC=CC(=O)O2)O1 | 59.9 µM | 63.3 µM | 39.7 µM | 49.2 µM | 68.9 µM | 40.4 µM | 36.3 µM | 69.3 µM | 49.6 µM | 80.5 µM | 19 µM | 26.9 µM | 15.9 µM | 21.7 µM | 22.7 µM | 20.7 µM | 19 µM | 28.6 µM | 23.1 µM | 24.2 µM
NCCCC(=O)Nc1ccncc1 | > 100 µM | > 100 µM | > 100 µM | > 100 µM | > 100 µM | > 100 µM | > 100 µM | > 100 µM | > 100 µM | > 100 µM | > 100 µM | > 100 µM | > 100 µM | > 100 µM | > 100 µM | > 100 µM | > 100 µM | > 100 µM | > 100 µM | > 100 µM
